Reference: patent publication US20140187570A1, “NOVEL FORMULATIONS OF PYRIMETHANIL, AND THEIR USE IN TREATMENT OF CROPS” (XEDA INTERNATIONAL, priority 2011, published 2014)

Tests used:
Geotrichum candidum = experiment: Fungicidal activity on treated oranges (Example 5); format: in vivo; conditions: oranges treated with pyrimethanil alone
Experimental: Oranges are separated into three lots, and are treated as follows: • Lot 1 (control): oranges not treated; • Lot 2: oranges treated with pyrimethanil alone; • Lot 3: oranges treated with 250 g of the formulation according to Example 2 diluted in one hectolitre of water.

[1] = system: Monilinia fructicola strain resistant to pyrimethanil; experiment: In vitro growth inhibition of the halo on PDA Petri dishes, resistant strain; format: cell-based; conditions: dose 250 ml/hl
Experimental: The object of the study was to determine the efficacy of combinations according to the invention against the phytopathogenic fungus Monilinia fructicola, compared to pyrimethanil alone.
The efficacy of the combinations against Monilinia fructicola was determined by determining the inhibition of growth of the halo in accordance with various general methods (ISO 6887: 2003; ISO 7218: 2007; ISO 7954: 1987).
The samples were added to the artificial medium and were mixed gently prior to the solidification of the agar solution.
A small quantity of fungal spores was placed at the centre of the potato dextrose agar (PDA) in Petri dishes at 25±1° C. for 5-6 days. At the end of the incubation, the inhibition of the halo formed was measured, compared with untreated PDA Petri dishes (control).
The results are expressed as the percentage of incidence of the infestation, and the percentage of efficacy of the product tested.
Monilinia fructicola—Strain Resistant to Pyrimethanil: […]

Cc1cc(C)nc(Nc2ccccc2)n1 [pyrimethanil alone, 2-anilino-4,6-dimethylpyrimidine]
level of Geotrichum candidum compared with control lot (Geotrichum candidum): same level of Geotrichum candidum as the control lot | Efficacy (%) [1]: 45%
